Reference: US20250186541A1, “DLL3 TARGETING PEPTIDES AND CONSTRUCTS THEREOF” (MARIANA ONCOLOGY INC., priority 2023, published 2025)
Numbered stars: 1 amine (or outer) side, 2 acyl side, 3 side chain; on linkers, the order of the positions; unused ones are H or OH. Bridge positions count the residues as written; N and C are the ends. Square brackets hold non-standard residues; d marks the D form. Peptide text beside a SMILES is read from it. * marks the point of attachment. DOTA = O=C(O)CN1CCN(CC(=O)O)CCN(CC(=O)*)CCN(CC(=O)O)CC1; Trp(7-Me) = Cc1cccc2c(C[C@H](N)C(=O)O)c[nH]c12; X3 = O=C([C@H](Cc1ccccc1CN[*:3])N[*:1])[*:2]; 1Nal = N[C@@H](Cc1cccc2ccccc12)C(=O)O; 2Nal = N[C@@H](Cc1ccc2ccccc2c1)C(=O)O; NMetBuAla = CN[C@@H](CC(C)(C)C)C(=O)O; tBuAla = CC(C)(C)C[C@H](N)C(=O)O; NMeD = CN[C@@H](CC(=O)O)C(=O)O; AllylGly = C=CC[C@H](N)C(=O)O; Pen = CC(C)(S)[C@H](N)C(=O)O; αMeP = C[C@@]1(C(=O)O)CCCN1; NMeS = CN[C@@H](CO)C(=O)O; αMeS = C[C@](N)(CO)C(=O)O; Ahx = NCCCCCC(=O)O

These compounds were tested against T1, human DLL3 (Homo sapiens, UniProt Q9NYJ7) (assay: Affinity determination by Surface Plasmon Resonance (SPR), Biacore, 1:1 binding model). Conditions: biotinylated human DLL3 on streptavidin chip, 25° C.; NB = nonbinding.
T1 construct: biotin (biotinylated)
T1 sequence (Q9NYJ7 27-618): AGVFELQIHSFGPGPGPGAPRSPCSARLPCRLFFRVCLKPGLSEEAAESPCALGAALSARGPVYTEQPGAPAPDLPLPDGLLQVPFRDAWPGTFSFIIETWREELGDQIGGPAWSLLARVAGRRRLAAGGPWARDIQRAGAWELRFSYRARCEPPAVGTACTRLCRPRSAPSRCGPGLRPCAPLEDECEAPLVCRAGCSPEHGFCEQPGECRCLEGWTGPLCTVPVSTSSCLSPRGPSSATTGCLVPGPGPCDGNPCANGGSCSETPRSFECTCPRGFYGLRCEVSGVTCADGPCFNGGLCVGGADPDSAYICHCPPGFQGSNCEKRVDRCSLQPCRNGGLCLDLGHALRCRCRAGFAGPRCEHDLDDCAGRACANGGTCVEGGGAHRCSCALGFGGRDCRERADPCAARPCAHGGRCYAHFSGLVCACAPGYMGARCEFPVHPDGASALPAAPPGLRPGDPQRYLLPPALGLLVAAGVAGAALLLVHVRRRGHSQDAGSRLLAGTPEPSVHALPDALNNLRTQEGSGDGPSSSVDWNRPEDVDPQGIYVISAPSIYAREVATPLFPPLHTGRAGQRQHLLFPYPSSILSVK
How it was run: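 SPR with biotinylated human DLL3 captured on a streptavidin chip, with a reference surface subtracted. Samples were injected at several concentrations at 100 μL/min in phosphate buffer with 137 mM NaCl, 2.7 mM KCl, 0.05% P20 and 2% DMSO. Kinetic and affinity constants came from a 1:1 binding fit.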
Work on CC(C)(C)C[C@@H]1NC(=O)[C@H](Cc2cccc3ccccc23)NC(=O)[C@@H](NC(=O)[C@H](CC(=O)O)NC(=O)[C@H](CO)NC(=O)CCCCCNC(=O)CN2CCN(CC(=O)O)CCN(CC(=O)O)CCN(CC(=O)O)CC2)CSSC[C@@H](C(=O)N2CCC[C@@]2(C)C(=O)N[C@@H](Cc2ccccc2)C(=O)N[C@@H](CC(=O)O)C(=O)O)NC(=O)[C@H](CC(N)=O)NC(=O)[C@H](Cc2ccc3ccccc3c2)NC(=O)[C@H](CCC(N)=O)NC1=O [compound 156, DOTA-Ahx-S-D-C(3)-(1Nal)-(t-Bu-Ala)-Q-(2Nal)-N-C(3)-(aMe-P)-F -D-COOH] ({DOTA-Ahx}-SDC[1Nal][tBuAla]Q[2Nal]NC[αMeP]FD-OH; disulfide 3-9) yielded a Kd of 0.11 nM.
With CC(=O)N[C@H](C)C(=O)N[C@@H](CO)C(=O)N[C@@H](CC(=O)O)C(=O)N[C@H]1CSSC[C@@H](C(=O)N2CCC[C@@]2(C)C(=O)N[C@@H](Cc2ccccc2CNC(=O)CN2CCN(CC(=O)O)CCN(CC(=O)O)CCN(CC(=O)O)CC2)C(=O)N[C@@H](CC(=O)O)C(N)=O)NC(=O)[C@H](CC(N)=O)NC(=O)[C@H](Cc2ccc3ccccc3c2)NC(=O)[C@H](CCC(N)=O)NC(=O)[C@H](CC(C)(C)C)NC(=O)[C@H](Cc2cccc3ccccc23)NC1=O [compound 159, Ac-(D-Ala)-S-D-C(3)-(1Nal)-(t-Bu-Ala)-Q-(2Nal)-N-C(3)-(aMe-P)-[OAF(DOTA)]-D-CONH2] (Ac-[dA]SDC[1Nal][tBuAla]Q[2Nal]NC[αMeP][X3](DOTA)D-NH2; disulfide 4-10) the Kd was over 30 nM.
CC(=O)N[C@H](C)C(=O)N[C@@H](CO)C(=O)N[C@@H](CC(=O)O)C(=O)N[C@H]1C/C=C/C[C@@H](C(=O)N2CCC[C@@]2(C)C(=O)N[C@@H](Cc2ccccc2)C(=O)N[C@@H](CC(=O)O)C(=O)N[C@H](CCCCNC(=O)CN2CCN(CC(=O)O)CCN(CC(=O)O)CCN(CC(=O)O)CC2)C(N)=O)NC(=O)[C@H](CC(N)=O)NC(=O)[C@H](Cc2ccc3ccccc3c2)NC(=O)[C@H](CCC(N)=O)NC(=O)[C@H](CC(C)(C)C)NC(=O)[C@H](Cc2cccc3ccccc23)NC1=O [compound 161, Ac-(D-Ala)-S-D-AllyG(4)-(1Nal)-(t-Bu-Ala)-Q-(2Nal)-N-AllyG(4)-(aMe-P)-F -D-D-Lys(DOTA)-CONH2] (Ac-[dA]SD[AllylGly][1Nal][tBuAla]Q[2Nal]N[AllylGly][αMeP]FD[dK](DOTA)-NH2; staple (E) 4-10) gave a Kd of 0.24 nM.
Compound CC(=O)N[C@H](C)C(=O)N[C@@H](CO)C(=O)N[C@@H](CC(=O)O)C(=O)N[C@@H]1C(=O)N[C@@H](Cc2cccc3ccccc23)C(=O)N[C@@H](CC(C)(C)C)C(=O)N[C@@H](CCC(N)=O)C(=O)N[C@@H](Cc2ccc3ccccc3c2)C(=O)N[C@@H](CC(N)=O)C(=O)N[C@H](C(=O)N2CCC[C@@]2(C)C(=O)N[C@@H](Cc2ccccc2)C(=O)N[C@@H](CC(=O)O)C(=O)N[C@H](CCCCNC(=O)CN2CCN(CC(=O)O)CCN(CC(=O)O)CCN(CC(=O)O)CC2)C(N)=O)CSSC1(C)C [compound 162, Ac-(D-Ala)-S-D-Pen(3)-(1Nal)-(t-Bu-Ala)-Q-(2Nal)-N-C(3)-(aMe-P)-F -D-D-Lys(DOTA)-CONH2] (Ac-[dA]SD[Pen][1Nal][tBuAla]Q[2Nal]NC[αMeP]FD[dK](DOTA)-NH2; disulfide 4-10) has a Kd of 224 nM.
For CC(=O)N[C@H](C)C(=O)N[C@@H](CO)C(=O)N[C@@H](CC(=O)O)C(=O)N[C@H]1CSSC[C@@H](C(=O)N2CCC[C@@]2(C)C(=O)N[C@@H](Cc2ccccc2)C(=O)N[C@@H](CC(=O)O)C(=O)N[C@H](CCCCNC(=O)CN2CCN(CC(=O)O)CCN(CC(=O)O)CCN(CC(=O)O)CC2)C(N)=O)NC(=O)[C@H](CC(N)=O)NC(=O)[C@H](Cc2ccc3ccccc3c2)NC(=O)[C@H](C)NC(=O)[C@H](CC(C)(C)C)NC(=O)[C@H](Cc2cccc3ccccc23)NC1=O [compound 165, Ac-(D-Ala)-S-D-C(3)-(1Nal)-(t-Bu-Ala)-Ala-(2Nal)-N-C(3)-(aMe-P)-F-D-[D-Lys(DOTA)]-NH2] (Ac-[dA]SDC[1Nal][tBuAla]A[2Nal]NC[αMeP]FD[dK](DOTA)-NH2; disulfide 4-10), the Kd was 0.094 nM.
CC(=O)N[C@H](C)C(=O)N[C@@](C)(CO)C(=O)N[C@@H](CC(=O)O)C(=O)N[C@H]1CSSC[C@@H](C(=O)N2CCC[C@@]2(C)C(=O)N[C@@H](Cc2ccccc2)C(=O)N[C@@H](CC(=O)O)C(=O)N[C@H](CCCCNC(=O)CN2CCN(CC(=O)O)CCN(CC(=O)O)CCN(CC(=O)O)CC2)C(N)=O)NC(=O)[C@H](CC(N)=O)NC(=O)[C@H](Cc2ccc3ccccc3c2)NC(=O)[C@H](CCC(N)=O)NC(=O)[C@H](CC(C)(C)C)NC(=O)[C@H](Cc2cccc3ccccc23)NC1=O [compound 167, Ac-(D-Ala)-(aMe-Ser)-D-C(3)-(1Nal)-(t-Bu-Ala)-Q-(2Nal)-N-C(3)-(aMe-P)-F-D-[D-Lys(DOTA)]-NH2] (Ac-[dA][αMeS]DC[1Nal][tBuAla]Q[2Nal]NC[αMeP]FD[dK](DOTA)-NH2; disulfide 4-10) showed a Kd of 0.24 nM.
Compound CC(=O)N[C@H](C)C(=O)N(C)[C@@H](CO)C(=O)N[C@@H](CC(=O)O)C(=O)N[C@H]1CSSC[C@@H](C(=O)N2CCC[C@@]2(C)C(=O)N[C@@H](Cc2ccccc2)C(=O)N[C@@H](CC(=O)O)C(=O)N[C@H](CCCCNC(=O)CN2CCN(CC(=O)O)CCN(CC(=O)O)CCN(CC(=O)O)CC2)C(N)=O)NC(=O)[C@H](CC(N)=O)NC(=O)[C@H](Cc2ccc3ccccc3c2)NC(=O)[C@H](CCC(N)=O)NC(=O)[C@H](CC(C)(C)C)NC(=O)[C@H](Cc2cccc3ccccc23)NC1=O [compound 169, Ac-(D-Ala)-(NMe-Ser)-D-C(3)-(1Nal)-(t-Bu-Ala)-Q-(2Nal)-N-C(3)-(aMe-P)-F-D-[D-Lys(DOTA)]-NH2] (Ac-[dA][NMeS]DC[1Nal][tBuAla]Q[2Nal]NC[αMeP]FD[dK](DOTA)-NH2; disulfide 4-10) has a Kd of 0.057 nM.
Work on CC(=O)N[C@H](C)C(=O)N[C@@H](CO)C(=O)N(C)[C@@H](CC(=O)O)C(=O)N[C@H]1CSSC[C@@H](C(=O)N2CCC[C@@]2(C)C(=O)N[C@@H](Cc2ccccc2)C(=O)N[C@@H](CC(=O)O)C(=O)N[C@H](CCCCNC(=O)CN2CCN(CC(=O)O)CCN(CC(=O)O)CCN(CC(=O)O)CC2)C(N)=O)NC(=O)[C@H](CC(N)=O)NC(=O)[C@H](Cc2ccc3ccccc3c2)NC(=O)[C@H](CCC(N)=O)NC(=O)[C@H](CC(C)(C)C)NC(=O)[C@H](Cc2cccc3ccccc23)NC1=O [compound 170, Ac-(D-Ala)-S-(NMe-Asp)-C(3)-(1Nal)-(t-Bu-Ala)-Q-(2Nal)-N-C(3)-(aMe-P)-F-D-[D-Lys(DOTA)]-NH2] (Ac-[dA]S[NMeD]C[1Nal][tBuAla]Q[2Nal]NC[αMeP]FD[dK](DOTA)-NH2; disulfide 4-10) yielded a Kd of 0.38 nM.
For CC(=O)N[C@H](C)C(=O)N[C@@H](CO)C(=O)N[C@@H](CC(=O)O)C(=O)N[C@H]1CSSC[C@@H](C(=O)N2CCC[C@@]2(C)C(=O)N[C@@H](Cc2ccccc2)C(=O)N[C@@H](CC(=O)O)C(=O)N[C@H](CCCCNC(=O)CN2CCN(CC(=O)O)CCN(CC(=O)O)CCN(CC(=O)O)CC2)C(N)=O)NC(=O)[C@H](CC(N)=O)NC(=O)[C@H](Cc2ccc3ccccc3c2)NC(=O)[C@H](CCC(N)=O)NC(=O)[C@H](CC(C)(C)C)N(C)C(=O)[C@H](Cc2cccc3ccccc23)NC1=O [compound 171, Ac-(D-Ala)-S-D-C(3)-(1Nal)-(NMe-Tba)-Q-(2Nal)-N-C(3)-(aMe-P)-F -D-[D-Lys(DOTA)]-NH2] (Ac-[dA]SDC[1Nal][NMetBuAla]Q[2Nal]NC[αMeP]FD[dK](DOTA)-NH2; disulfide 4-10), the Kd was 1.21 nM.
Work on CC(=O)N[C@H](C)C(=O)N[C@@H](CO)C(=O)N[C@@H](CC(=O)O)C(=O)N[C@H]1CSSC[C@@H](C(=O)N2CCC[C@@]2(C)C(=O)N[C@@H](Cc2ccccc2)C(=O)N[C@@H](CC(=O)O)C(=O)N[C@H](CCCCNC(=O)CN2CCN(CC(=O)O)CCN(CC(=O)O)CCN(CC(=O)O)CC2)C(N)=O)NC(=O)[C@H](CC(N)=O)NC(=O)[C@H](Cc2ccc3ccccc3c2)NC(=O)[C@H](CCC(N)=O)NC(=O)[C@H](CC(C)(C)C)NC(=O)[C@H](Cc2cccc3ccccc23)NC1=O [compound 172, Ac-(D-Ala)-S-D-C(3)-(1Nal)-(t-Bu-Ala)-Q-(2Nal)-N-C(3)-(aMe-P)-F -D-[D-Lys(DOTA)]-NH2] (Ac-[dA]SDC[1Nal][tBuAla]Q[2Nal]NC[αMeP]FD[dK](DOTA)-NH2; disulfide 4-10) yielded a Kd of 0.037 nM.
CC(=O)N[C@H](C)C(=O)N[C@@H](CO)C(=O)N[C@@H](CC(=O)O)C(=O)N[C@H]1CSSC[C@@H](C(=O)N2CCC[C@@]2(C)C(=O)N[C@@H](Cc2ccccc2)C(=O)N[C@@H](CC(=O)O)C(=O)N[C@H](CCCCNC(=O)CN2CCN(CC(=O)O)CCN(CC(=O)O)CCN(CC(=O)O)CC2)C(N)=O)NC(=O)[C@H](CC(N)=O)NC(=O)[C@H](Cc2ccc3ccccc3c2)NC(=O)[C@H](CCC(N)=O)NC(=O)[C@H](CC(C)(C)C)NC(=O)[C@H](Cc2c[nH]c3c(C)cccc23)NC1=O [compound 173, Ac-(D-Ala)-S-D-C(3)-(7Me-W)-(t-Bu-Ala)-Q-(2Nal)-N-C(3)-(aMe-P)-F -D-[D-Lys(DOTA)]-NH2] (Ac-[dA]SDC[Trp(7-Me)][tBuAla]Q[2Nal]NC[αMeP]FD[dK](DOTA)-NH2; disulfide 4-10) was tested, and the Kd was 0.48 nM.
